Molecules are shown by their SMILES. Where a name gives a salt, the structure may show the parent alone. Read-outs that look alike come from different tables or passages of the source.

The target in test [1] is T1, human recombinant KDM1A/CoREST protein (Homo sapiens, UniProt O60341).
T1 construct: made in house; host or cells: E. coli
Kind of test: Assay of enzyme inhibition of KDM1A (LSD1), TR-FRET. Format: biochemical. The procedure: 2.1 Assay of Enzyme Inhibition of KDM1A (LSD1)
The KDM1A inhibiting activity was determined using a TR-FRET assay (time resolved fluorescence resonance energy transfer, Lance® Ultra Demethylase technology (Perkin Elmer, Waltham, Mass., USA)), which comprises a Europium chelate donor dye (TRF0404, Perkin Elmer, Waltham, Mass., USA) together with ULight™ (TR0102, Perkin Elmer, Waltham, Mass., USA), a small molecular weight acceptor dye with a red-shifted fluorescent emission, and a biotinylated 21 amino acids histone H3-derived monomethylated peptide (H3K4me) [Lys(Me1)4]-Histone H3 (1-21)-GGK(biotin), (64355, Anaspec, Fremont, Calif., USA) as substrate. The intensity of the light emission is proportional to the level of biotinylated reaction product. The complex of human recombinant KDM1A/CoREST protein was produced in E. coli as separate proteins and co-purified as previously described.(Forneris, F. et al. Trends Biochem, Sci, 2008, 33, 181-189) (Forneris, F. et al. J. Biol. Chem. 2007, 282, 20070-20074).
Demethylase Assay conditions: 0.25 nM KDM1A/CoREST protein and compound in 100% DMSO were added in a final volume of 48 μL assay buffer (Tris HCl 50 mM pH 8.8, NaCl 50 mM, DTT 1 mM, Tween-20 0.01% (by volume)) to each well of a 96 well half area flat bottom white plate (3693 Costar, Sigma-Aldrich, St. Louis, M, USA).
Demethylase reaction was started by the addition of 50 nM histone H3K4 monomethylated. After 20 min at RT, 300 μM tranylcypromine (P8511-1G, Sigma-Aldrich, St. Louis, Mo. 63103) was added to stop the reaction.
Detection step conditions: 10 μL of the assay mixture was transferred from the original plate into a 384 well white plate (6007290 OptiPlate™, Perkin Elmer, Waltham, Mass., USA) and 10 μL of the detection Mix containing 2 nM Eu-antibody and 10 nM U-Light-Streptavidin in 1× Lance Detection Buffer (TRF0404, TR0102, CR97100, Perkin Elmer, Waltham, Mass., USA). The resulting mixture was incubated in the dark for 1 h at RT. Then, TR-FRET signal was read by a fluorimeter (Infinite® F200, Tecan, Männedorf, Switzerland) (Excitation 320 nm, Emission 665 nm and 620 nm, delay time 50 μs, window time 100 μs).
IC50 determination: The inhibitor concentrations ranged from 0.025 to 500 μM (serial 1:3 dilutions). The IC50 was calculated using GraphPad Software.

In test [2] the test system is Human leukemia MV4-11 cells. Kind of test: Cell growth, CellTiter-Fluor cell viability assay, MV4-11. Format: cell-based. The settings on record: 48 h incubation, read-out: IC50 against human leukemia MV4-11 cells. The source says:
(§1) CellTiter-Flor® (Promega) is as a nonlytic, single-reagent-addition fluorescence assay that measures the relative number of living cells in a culture population after experimental manipulation. The CellTiter-Fluor™ Cell Viability Assay measures the conserved and constitutive protease activity within live cells and therefore acts as a marker for cell viability.
(§2) Human leukemia MV4-11 cells, (obtained from the Deutsche Sammlung von Mikroorganismen und Zellkulturen, ACC 102) or NB4 cells, (obtained from the Deutsche Sammlung von Mikroorganismen und Zellkulturen) in exponential growth, were incubated for 48 h with different concentrations of the inhibitors. After 48 h a volume of CellTiter-Fluor® Reagent equal to one fifth of volume of cell culture medium was added. The content was mixed and incubates for at least 90 min at 37° C. degree to obtain a stable signal. The fluorescence was recorded using an excitation wavelength of 360 nm and an emission at 535 nm. The IC50 was calculated using GraphPad Software.

A further test deals with human leukemia NB4 cells. Kind of test: Cell growth, CellTiter-Fluor cell viability assay, NB4. The settings on record: NB-4, 48 h incubation, read-out: IC50 against human leukemia NB4 cells. Format: cell-based.
Text: as §1, §2

Where [3] appears, read: 0.25 nM KDM1A/CoREST, 50 nM H3K4 monomethylated peptide, 20 min at RT, read-out: IC50, KDM1A (LSD1) enzyme inhibition.

In the case of `Cn1c(C(=O)c2cn(CCOc3cccc(OC[C@@H]4CCNC4)c3)c3ccccc23)cc2sccc21` [Compound 14, (4-methylthieno[3,2-b]pyrrol-5-yl)-[1-[2-[3-[[(3R)-pyrrolidin-3-yl]methoxy]phenoxy]ethyl]indol-3-yl]methanone hydrochloride], the IC50 is under 0.5 µM in test [1] (setting [3]), under 10 µM in test [2] and under 10 µM in the test with human leukemia NB4 cells.

Consider `Cn1c(C(=O)c2c[nH]c3ccccc23)cc2ccsc21` [Compound 6, 1H-indol-3-yl-(6-methylthieno[2,3-b]pyrrol-5-yl)methanone], for which the half-inhibitory concentration (IC50) in test [1] (setting [3]) was under 50 µM. Same read-out and setting: as for `Cn1c(C(=O)c2cn(CCCc3ccc(OC[C@@H]4CCNC4)cc3)c3ccccc23)cc2ccsc21` (stereo in doubt) [Compound 29, (6-methylthieno[2,3-b]pyrrol-5-yl)-[1-[3-[4-(pyrrolidin-3-ylmethoxy)phenyl]propyl]indol-3-yl]methanone], the figure is under 0.5 µM. Turning to `Cn1c(C(=O)c2cn(CCOc3ccc(O[C@H]4CCCNCC4)cc3)c3ccccc23)cc2sccc21` (stereo in doubt) [Compound 21, [1-[2-[4-(azepan-4-yloxy)phenoxy]ethyl]indol-3-yl]-(4-methylthieno[3,2-b]pyrrol-5-yl)methanone hydrochloride], the IC50 is under 0.5 µM in test [1] (setting [3]) and under 10 µM in the test with human leukemia NB4 cells. On to `Cn1c(C(=O)c2cn(CCOc3cccc(OCC4CCNC4)c3)c3ccccc23)cc2sccc21` (stereo not shown) [Compound 12, (4-methylthieno[3,2-b]pyrrol-5-yl)-[1-[2-[3-(pyrrolidin-3-ylmethoxy)phenoxy]ethyl]indol-3-yl]methanone], for which the IC50 in test [1] (setting [3]) was under 0.5 µM. On to `Cn1c(C(=O)c2cn(CCOc3ccc(OC4CCNCC4)cc3)c3ccccc23)cc2sccc21` [Compound 17, (4-methylthieno[3,2-b]pyrrol-5-yl)-[1-[2-[4-(4-piperidyloxy)phenoxy]ethyl]indol-3-yl]methanone hydrochloride], for which the half-maximal inhibitory concentration (IC50) in test [1] (setting [3]) was under 0.5 µM; in test [2], under 10 µM; with human leukemia NB4 cells it was under 10 µM. `Cc1ccc2[nH]cc(C(=O)c3cc4sccc4n3C)c2c1` [Compound 2, (5-methyl-1H-indol-3-yl)-(4-methylthieno[3,2-b]pyrrol-5-yl)methanone]: the IC50 in test [1] (setting [3]) was under 50 µM. As to `Cn1c(C(=O)c2cn(CCOc3cccc(OCC4CCNCC4)c3)c3ccccc23)cc2sccc21` [Compound 18, (4-methylthieno[3,2-b]pyrrol-5-yl)-[1-[2-[3-(4-piperidylmethoxy)phenoxy]ethyl]indol-3-yl]methanone hydrochloride], the half-inhibitory concentration (IC50) was under 0.5 µM in test [1] (setting [3]), under 10 µM in test [2] and under 10 µM with human leukemia NB4 cells. Consider `Cn1c(C(=O)c2cn(CCOc3cccc(OC4CCNCC4)c3)c3ccccc23)cc2sccc21` [Compound 16, (4-methylthieno[3,2-b]pyrrol-5-yl)-[1-[2-[3-(4-piperidyloxy)phenoxy]ethyl]indol-3-yl]methanone hydrochloride], for which the IC50 in test [1] (setting [3]) was under 0.5 µM; in test [2], under 10 µM; in the test on human leukemia NB4 cells, under 10 µM. For `Cn1c(C(=O)c2cn(CCCc3ccc(O[C@H]4CCCNCC4)cc3)c3ccccc23)cc2sccc21` (stereo in doubt) [Compound 25, [1-[3-[4-(azepan-4-yloxy)phenyl]propyl]indol-3-yl]-(4-methylthieno[3,2-b]pyrrol-5-yl)methanone hydrochloride], the concentration for half-maximal inhibition (IC50) in test [1] (setting [3]) is under 0.5 µM.

Turning to `Cn1c(C(=O)c2cn(CCCc3ccc(OC4CCNCC4)cc3)c3ccccc23)cc2sccc21` [Compound 24, (4-methylthieno[3,2-b]pyrrol-5-yl)-[1-[3-[4-(4-piperidyloxy)phenyl]propyl]indol-3-yl]methanone hydrochloride], the 50% inhibitory concentration (IC50) in test [1] (setting [3]) was under 0.5 µM; in the test with human leukemia NB4 cells, under 10 µM. `Cn1c(C(=O)c2cn(CCOc3cccc(O[C@@H]4CCCNCC4)c3)c3ccccc23)cc2sccc21` (stereo in doubt) [Compound 20, [1-[2-[3-(azepan-4-yloxy)phenoxy]ethyl]indol-3-yl]-(4-methylthieno[3,2-b]pyrrol-5-yl)methanone hydrochloride]: the values for the concentration for half-maximal inhibition (IC50) (in test [1] (setting [3]); with human leukemia NB4 cells) were under 0.5 µM and under 10 µM, respectively. As for `Cn1c(C(=O)c2cn(CCCc3ccc(OC[C@@H]4CCNC4)cc3)c3ccccc23)cc2sccc21` (stereo in doubt) [Compound 22, (4-methylthieno[3,2-b]pyrrol-5-yl)-[1-[3-[4-(pyrrolidin-3-ylmethoxy)phenyl]propyl]indol-3-yl]methanone hydrochloride], the half-maximal inhibitory concentration (IC50) was under 0.5 µM in test [1] (setting [3]) and under 10 µM with human leukemia NB4 cells. For the compound `Cn1c(C(=O)c2c[nH]c3ccccc23)cc2sccc21` [Compound 1, 1H-indol-3-yl-(4-methylthieno[3,2-b]pyrrol-5-yl)methanone], in test [1] (setting [3]), the IC50 was under 50 µM. In the case of `Cn1c(C(=O)c2cn(CCCc3ccc(OCC4CCNCC4)c(OCC4CCNCC4)c3)c3ccccc23)cc2sccc21` [Compound 26, [1-[3-[3,4-bis(4-piperidylmethoxy)phenyl]propyl]indol-3-yl]-(4-methylthieno[3,2-b]pyrrol-5-yl)methanone], the IC50 in test [1] (setting [3]) is under 0.5 µM.

In the case of `Cn1c(C(=O)c2cn(CCOc3ccc(OC[C@@H]4CCNC4)cc3)c3ccccc23)cc2sccc21` (stereo in doubt) [Compound 15, (4-methylthieno[3,2-b]pyrrol-5-yl)-[1-[2-[4-(pyrrolidin-3-ylmethoxy)phenoxy]ethyl]indol-3-yl]methanone hydrochloride], the half-maximal inhibitory concentration (IC50) in test [1] (setting [3]) is under 0.5 µM; in test [2], under 10 µM; with human leukemia NB4 cells, under 10 µM. In the case of `CCn1c(C(=O)c2c[nH]c3ccccc23)cc2sccc21` [Compound 5, (4-ethylthieno[3,2-b]pyrrol-5-yl)-(1H-indol-3-yl)methanone], the IC50 in test [1] (setting [3]) was under 50 µM.

Take `COCCn1cc(C(=O)c2cc3sccc3n2C)c2ccccc21` [Compound 8, [1-(2-Methoxyethyl)indol-3-yl]-(4-methylthieno[3,2-b]pyrrol-5-yl)methanone]: in test [1], the IC50 was under 50 µM. On to `Cn1c(C(=O)c2cn(CCCc3ccc(OC4CCNCC4)cc3)c3ccccc23)cc2ccsc21` [Compound 30, (6-methylthieno[2,3-b]pyrrol-5-yl)-[1-[3-[4-(4-piperidyloxy)phenyl]propyl]indol-3-yl]methanone], for which, in test [1] (setting [3]), the IC50 was under 0.5 µM. Same read-out and setting: as for `CCn1c(C(=O)c2cn(CCCc3ccc(OC[C@@H]4CCNC4)cc3)c3ccccc23)cc2sccc21` (stereo in doubt) [Compound 28, (4-ethylthieno[3,2-b]pyrrol-5-yl)-[1-[3-[4-(pyrrolidin-3-ylmethoxy)phenyl]propyl]indol-3-yl]methanone hydrochloride], the figure is under 0.5 µM.

Turning to `CCn1c(C(=O)c2cn(CCCc3ccc(OC4CCNCC4)cc3)c3ccccc23)cc2sccc21` [Compound 27, (4-ethylthieno[3,2-b]pyrrol-5-yl)-[1-[3-[4-(4-piperidyloxy)phenyl]propyl]indol-3-yl]methanone hydrochloride], the half-inhibitory concentration (IC50) in test [1] (setting [3]) is under 0.5 µM.

Consider `Cn1c(C(=O)c2cn(CCCc3ccc(OCC4CCNCC4)cc3)c3ccccc23)cc2sccc21` [Compound 23, (4-methylthieno[3,2-b]pyrrol-5-yl)-[1-[3-[4-(4-piperidylmethoxy)phenyl]propyl]indol-3-yl]methanone hydrochloride], for which the values for the IC50 (in test [1] (setting [3]); in the test on human leukemia NB4 cells) were under 0.5 µM and under 10 µM, respectively.

These data come from US10980777B2, “Indole derivatives as histone demethylase inhibitors” (Istituto Europeo di Oncologia S.r.l., priority 2017, dated 2021).
